Source: patent publication US11130771B2, “Prodrugs of Naltrexone, Nalmefene and derivatives thereof” (TAIWANJ PHARMACEUTICALS CO., LTD., priority 2018, dated 2021)

Assay: Pharmacokinetic Measurement in BALB/c Mice (oral gavage, plasma LC-MS/MS)
Conditions: parent compound after oral administration, compared with prodrug and Naltrexone from prodrug; FIGS. 1 and 2
Procedure: This study tested the bioavailability of different test compounds in rats, by oral gavage administration, at prescribed dose levels.
Male BALB/c mice, body weight approximately 1925 g, were purchased from BioLASCO Taiwan Co., Ltd. and kept in the Animal Laboratory of Industrial
LC-MS/MS: ABSCIEX 4000 QTRAP LC-MS/MS System; Polarity: positive mode; Column: XBridge RP18, 3.5 μm, 4.6×20 mm; Flow rate: 0.7 mL/min; Injection volume: 10 μL; Temperature: Room temperature; Running time: 5 min.
Blood aliquots (40 μL) were collected from jugular vein catheterized BALB/c in tubes coated with K2-EDTA, mixed gently, then kept on ice and centrifuged at 7000×g for 15 minutes at 4° C. The plasma was then harvested and kept frozen at −80° C. until further processing.
The plasma samples were processed using acetonitrile precipitation and analyzed by LC-MS/MS. A plasma calibration curve was generated. […]
The spiked plasma samples were processed together with the unknown plasma samples using the same procedure. The processed plasma samples were stored at −80° C. until the LC-MS/MS analysis, at which time peak areas were recorded, and the concentrations of the test compound in the unknown plasma samples were determined using the respective calibration curve. The reportable linear range of the assay was determined, along with the lower limit of quantitation (LOQ). […]

O=C1CC[C@@]2(O)[C@H]3Cc4ccc(O)c5c4[C@@]2(CCN3CC2CC2)[C@H]1O5 [Naltrexone]
concentration in blood with respect to time: raised rapidly and reached the highest level
